IC50 data for 23 molecules are collected here from US12023319B2, “Carboxylic acid aromatic amides” (priority 2016, dated 2024).

This experiment has as its target T1, human Bradykinin B1 receptor (Homo sapiens, UniProt P46663).
T1 construct: host or cells: CHO-K1
T1 sequence (P46663 1-353): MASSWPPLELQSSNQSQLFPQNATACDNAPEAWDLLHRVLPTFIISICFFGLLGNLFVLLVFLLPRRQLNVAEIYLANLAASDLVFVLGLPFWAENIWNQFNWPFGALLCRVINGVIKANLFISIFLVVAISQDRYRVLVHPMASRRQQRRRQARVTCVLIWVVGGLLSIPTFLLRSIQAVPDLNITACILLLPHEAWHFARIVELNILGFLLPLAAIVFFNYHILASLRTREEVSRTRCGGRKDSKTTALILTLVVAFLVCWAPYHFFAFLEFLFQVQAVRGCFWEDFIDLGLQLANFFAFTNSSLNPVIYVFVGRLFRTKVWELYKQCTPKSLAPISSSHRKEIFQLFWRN
The experiment is described as follows: Calcium flux assay (FLIPR), CHO-K1 cells expressing human Bradykinin B1 receptor, absence of 0.1% BSA (hB1 free IC50). Type of experiment: cell-based. The following applies: absence of 0.1% BSA in assay buffer. The procedure: The potency to inhibit the Bradykinin B1 receptor was determined for the Compound Examples of this invention in a cell-based fluorescent calcium-mobilisation assay. The assay measures the ability of Compound Examples to inhibit Bradykinin B1 receptor agonist-induced increase of intracellular free Ca^2+ in the cell line expressing Bradykinin B1 receptor. Specifically, calcium indicator-loaded cells are pre-incubated in the absence or presence of different concentrations of Compound Examples followed by the stimulation with a selective Bradykinin B1 receptor agonist peptide. The change of the intracellular Ca^2+ concentration is monitored with a fluorescent plate reader FLIPR^TETRA® (Molecular Devices).
Calcium Flux Assays (FLIPR) with Cells Expressing Human Bradykinin B1 Receptor (hB1)
CHO-K1 cell line expressing human Bradykinin B1 receptor is purchased from Euroscreen (Gosselies, Belgium, with reference name hB1-D1). The cells are grown in Nutrient Mixture Ham's F12 (Sigma) containing 10% Foetal bovine serum (Sigma) and 400 μg/mL G418 (Sigma), 5 μg/mL puromycin (Sigma).
The effect of BSA on the potency of endothelin receptor antagonists have been described in the prior art (Wu-Wong, J. R. et al. (1997), JPET 281: 791-798). The teaching can be applied in analogy to testing the potency of Bradykinin B1 receptor antagonist in the FLIPR assays.
For the calcium flux assay, 80% confluent cells are detached from the culture vessels with Versene (Gibco), and seeded into 384-well plates (Cell binding Surface; Corning, NY; #3683) at a density of 15,000 cells per well. Cells are seeded in a volume of 50 μL in medium without antibiotics and incubated overnight in a humidified atmosphere with 5% CO2 at 37° C. […] The calcium indicator loaded cells are incubated at 37° C. for 2 hrs. Extracellular dye is then removed and each well is filled with 45 μL of assay buffer. Cell plates are kept in dark until used. Compound examples are assayed at 8 concentrations in triplicate. Serial 10-fold dilutions in 100% DMSO are made at a 100-times higher concentration than the final concentration, and then diluted 1:10 in assay buffer. 5 μL of each diluted compound is added to the well of cell plates (yielding final concentration with 1% DMSO), and incubated for 30 min at 28° C. before the addition of Bradykinin B1 receptor agonist on the FLIPR instrument.
The addition of agonist 20 μl per well to the assay plate is carried out on the FLIPR instrument while continuously monitoring Ca2+-dependent fluorescence at 538 nm. A peptide antagonist Lys-(Des-Arg-Leu)-Bradykinin (Bachem, Brackley) at 20 µM is used to determine the full inhibition as control.
Peak fluorescence is used to determine the response to agonist obtained at each concentration of Compound Examples by the following equation: % Response=100*(RFU(compound)−RFU(control))/(RFU(DMSO)−RFU(control))
RFU means relative fluorescence units.
Control means full inhibition by the peptide antagonist Lys-(Des-Arg-Leu)-Bradykinin at 20 µM.
The response values are plotted against the logarithm of the compound concentrations. The Compound Examples are tested in triplicates per plate and mean values are plotted in Excel XLfit to determine IC50 values, percentage of maximal inhibition and the Hill slopes.
For orientation: A change in cytosolic calcium serves as a functional read-out for many receptors and channels.

In general, IC50 refers to the concentration that gives 50% inhibition. Regarding `CCC(F)(F)c1ccc(-c2ccc(NC(=O)C3(c4ccc(F)cc4F)CC3)cc2C(=O)O)cn1` [Example 23, 5-({[1-(2,4-Difluorophenyl)cyclopropyl]carbonyl}amino)-2-[6-(1,1-difluoropropyl)pyridin-3-yl]benzoic acid], the IC50 amounted to 2400 nM.
As to `CC[C@H](C)n1cc(-c2ccc(NC(=O)C3(c4ccc(OC(F)(F)F)cc4F)CC3)cc2C(=O)O)cn1` [Example 132, 2-{1-[(2S)-Butan-2-yl]-1H-pyrazol-4-yl}-5-[({1-[2-fluoro-4-(trifluoromethoxy)phenyl]cyclopropyl}carbonyl)amino]benzoic acid], the IC50 was 56 nM.
Consider `O=C(O)c1cc(NC(=O)C2(c3ccc(Cl)c(F)c3)CC2)ccc1-c1cnn(C2CCC2)c1` [Example 49, 5-({[1-(4-Chloro-3-fluorophenyl)cyclopropyl]carbonyl}amino)-2-(1-cyclobutyl-1H-pyrazol-4-yl)benzoic acid], for which the IC50 turned out to be 47 nM.
On to `Cc1ccc(C2(C(=O)Nc3ccc(-c4cnn(C5CC5)c4)c(C(=O)O)c3)CC2)c(F)c1` [Example 150, 2-(1-Cyclopropyl-1H-pyrazol-4-yl)-5-({[1-(2-fluoro-4-methylphenyl)cyclopropyl]carbonyl}amino)benzoic acid], for which the IC50 is 500 nM.
Regarding `O=C(O)c1cc(NC(=O)C2(c3ccc(OC(F)(F)F)cc3F)CC2)ccc1-c1cnn(C2CC2)c1` [Example 125, 2-(1-Cyclopropyl-1H-pyrazol-4-yl)-5-[({1-[2-fluoro-4-(trifluoromethoxy)phenyl]cyclopropyl}carbonyl)amino]benzoic acid], the IC50 worked out at 170 nM.
For the molecule `O=C(O)c1cc(NC(=O)C2(c3cc(C(F)(F)F)ccc3F)CC2)ccc1-c1cnn(C2CCC2)c1` [Example 60, 2-(1-Cyclobutyl-1H-pyrazol-4-yl)-5-[({1-[2-fluoro-5-(trifluoromethyl)phenyl]cyclopropyl}carbonyl)amino]benzoic acid], the IC50 stood at 62 nM.
`CCCn1cc(-c2ccc(NC(=O)C3(c4ccc(OC(F)(F)F)cc4F)CC3)cc2C(=O)O)cn1` [Example 115, 5-[({1-[2-Fluoro-4-(trifluoromethoxy)phenyl]cyclopropyl}carbonyl)amino]-2-(1-propyl-1H-pyrazol-4-yl)benzoic acid]: the half-maximal inhibitory concentration (IC50) is 120 nM.
For the molecule `Cc1cnc(-c2ccc(NC(=O)C3(c4ccc(C(F)(F)F)cc4F)CC3)cc2C(=O)O)cn1` [Example 169, 5-[({1-[2-Fluoro-4-(trifluoromethyl)phenyl]cyclopropyl}carbonyl)amino]-2-(5-methylpyrazin-2-yl)benzoic acid], the IC50 came to 2100 nM.
Take `CC[C@@H](C)n1cc(-c2c(F)cc(NC(=O)C3(c4ccc(C(F)(F)F)cc4F)CC3)cc2C(=O)O)cn1` [Example 136, 2-{1-[(2R)-Butan-2-yl]-1H-pyrazol-4-yl}-3-fluoro-5-[({1-[2-fluoro-4-(trifluoromethyl)phenyl]cyclopropyl}carbonyl)amino]benzoic acid]: the half-maximal inhibitory concentration (IC50) is 28 nM.
As for `O=C(O)c1cc(NC(=O)C2(c3ccc(OC(F)(F)F)cc3F)CC2)ccc1-n1cc(C2CCC2)cn1` [Example 130, 2-(4-Cyclobutyl-1H-pyrazol-1-yl)-5-[({1-[2-fluoro-4-(trifluoromethoxy)phenyl]cyclopropyl}carbonyl)amino]benzoic acid], the figure is 590 nM.
Turning to `O=C(O)c1cc(NC(=O)C2(c3ccc(OC(F)(F)F)cc3F)CC2)cc(Cl)c1-c1ccc(C(F)F)nc1` [Example 103, 3-Chloro-2-[6-(difluoromethyl)pyridin-3-yl]-5-[({1-[2-fluoro-4-(trifluoromethoxy)phenyl]cyclopropyl}carbonyl)amino]benzoic acid], the IC50 is 62 nM.
Regarding `CCc1ccc(-c2ccc(NC(=O)C3(c4ccc(OC(F)(F)F)cc4F)CC3)cc2C(=O)O)cn1` [Example 161, 2-(6-Ethylpyridin-3-yl)-5-[({1-[2-fluoro-4-(trifluoromethoxy)phenyl]cyclopropyl}carbonyl)amino]benzoic acid], the IC50 worked out at 15 nM.
As for `CC(C)(C)Cn1cc(-c2ccc(NC(=O)C3(c4ccc(C(F)(F)F)cc4F)CC3)cc2C(=O)O)cn1` [Example 76, 2-[1-(2,2-Dimethylpropyl)-1H-pyrazol-4-yl]-5-[({1-[2-fluoro-4-(trifluoromethyl)phenyl]cyclopropyl}carbonyl)amino]benzoic acid], the figure is 11 nM; as for `O=C(O)c1cc(NC(=O)C2(c3ccc(F)cc3Cl)CC2)ccc1-c1cnn(C2CCC2)c1` [Example 61, 5-({[1-(2-Chloro-4-fluorophenyl)cyclopropyl]carbonyl}amino)-2-(1-cyclobutyl-1H-pyrazol-4-yl)benzoic acid], 200 nM.
Regarding `O=C(O)c1cc(NC(=O)C2(c3ccc(OC(F)(F)F)cc3F)CC2)cc(F)c1-c1cnn(CC2CC2)c1` [Example 127, 2-[1-(Cyclopropylmethyl)-1H-pyrazol-4-yl]-3-fluoro-5-[({1-[2-fluoro-4-(trifluoromethoxy)phenyl]cyclopropyl}carbonyl)amino]benzoic acid], the IC50 is 11 nM.
As for `O=C(O)c1cc(NC(=O)C2(c3ccc(C(F)(F)F)cc3F)CC2)ccc1-c1ccc(Cl)s1` [Example 47, 2-(5-Chloro-2-thienyl)-5-[({1-[2-fluoro-4-(trifluoromethyl)phenyl]cyclopropyl}carbonyl)amino]benzoic acid], the IC50 worked out at 230 nM.
For `CC(F)(F)c1ccc(-c2ccc(NC(=O)C3(c4ccc(C(F)(F)F)cc4F)CC3)cc2C(=O)O)cn1` [Example 31, 2-[6-(1,1-Difluoroethyl)pyridin-3-yl]-5-[({1-[2-fluoro-4-(trifluoromethyl)phenyl]cyclopropyl}carbonyl)amino]benzoic acid] the value was 130 nM.
As for `O=C(O)c1c(-c2cnn(C3CCC3)c2)ccc(NC(=O)C2(c3ccc(C(F)(F)F)cc3F)CC2)c1F` [Example 98, 6-(1-Cyclobutyl-1H-pyrazol-4-yl)-2-fluoro-3-[({1-[2-fluoro-4-(trifluoromethyl)phenyl]cyclopropyl}carbonyl)amino]benzoic acid], the figure is 2700 nM.
For `O=C(O)c1cc(NC(=O)C2(c3ccc(C(F)(F)F)cc3)CC2)ccc1-c1cnn(C2CCC2)c1` [Example 50, 2-(1-Cyclobutyl-1H-pyrazol-4-yl)-5-[({1-[4-(trifluoromethyl)phenyl]cyclopropyl}carbonyl)amino]benzoic acid] the value was 62 nM; for `O=C(O)c1cc(NC(=O)C2(c3cc(F)c(F)cc3F)CC2)ccc1-c1ccc(C(F)(F)F)nc1` [Example 8, 2-[6-(Trifluoromethyl)pyridin-3-yl]-5-({[1-(2,4,5-trifluorophenyl)cyclopropyl]carbonyl}amino)benzoic acid], 690 nM; for `COCCn1cc(-c2ccc(NC(=O)C3(c4ccc(C(F)(F)F)cc4F)CC3)cc2C(=O)O)cn1` [Example 155, 5-[({1-[2-Fluoro-4-(trifluoromethyl)phenyl]cyclopropyl}carbonyl)amino]-2-[1-(2-methoxyethyl)-1H-pyrazol-4-yl]benzoic acid], 270 nM.
`CCn1cc(-c2c(F)cc(NC(=O)C3(c4ccc(OC(F)(F)F)cc4F)CC3)cc2C(=O)O)cn1` [Example 139, 2-(1-Ethyl-1H-pyrazol-4-yl)-3-fluoro-5-[({1-[2-fluoro-4-(trifluoromethoxy)phenyl]cyclopropyl}carbonyl)amino]benzoic acid]: the IC50 is 13 nM.
As for `CC(C)Cn1cc(-c2c(F)cc(NC(=O)C3(c4ccc(C(F)(F)F)cc4F)CC3)cc2C(=O)O)cn1` [Example 92, 3-Fluoro-5-[({1-[2-fluoro-4-(trifluoromethyl)phenyl]cyclopropyl}carbonyl)amino]-2-(1-isobutyl-1H-pyrazol-4-yl)benzoic acid], the figure is 29 nM.
